Reference: article PMC9305623, “Next generation GLP-1/GIP/glucagon triple agonists normalize body weight in obese mice” (Molecular Metabolism, 2022)
*1 amine or outer side, *2 acyl side, *3 side chain or, on linkers, in order; H or OH if unused. Where a SMILES comes first, the peptide text is derived from it. Side-chain parts run from the residue outwards. [ ]: non-standard residue; d: D form. The star is where a group is joined. C20 diacid = O=C(O)CCCCCCCCCCCCCCCCCCC(=O)*; γGlu = O=C(O)[C@H](CCC(=O)[*:2])N[*:1]; εLys = N[C@@H](CCCCN[*:1])C(=O)[*:2]; Aib = CC(C)(N)C(=O)O

Columns and labels:
mGcg Receptor = biological target: T1, mGcg Receptor (Mus musculus, UniProt Q61606); experiment: Receptor activation: cAMP production by CRE-luciferase reporter in stably transfected BHK cells; assay type: cell-based; settings: relative to native ligand at mouse-derived receptor
T1 construct: expressed in transfected cells; host or cells: baby hamster kidney (BHK) cells, stably transfected, with CRE-firefly luciferase reporter
T1 sequence (Q61606 27-485): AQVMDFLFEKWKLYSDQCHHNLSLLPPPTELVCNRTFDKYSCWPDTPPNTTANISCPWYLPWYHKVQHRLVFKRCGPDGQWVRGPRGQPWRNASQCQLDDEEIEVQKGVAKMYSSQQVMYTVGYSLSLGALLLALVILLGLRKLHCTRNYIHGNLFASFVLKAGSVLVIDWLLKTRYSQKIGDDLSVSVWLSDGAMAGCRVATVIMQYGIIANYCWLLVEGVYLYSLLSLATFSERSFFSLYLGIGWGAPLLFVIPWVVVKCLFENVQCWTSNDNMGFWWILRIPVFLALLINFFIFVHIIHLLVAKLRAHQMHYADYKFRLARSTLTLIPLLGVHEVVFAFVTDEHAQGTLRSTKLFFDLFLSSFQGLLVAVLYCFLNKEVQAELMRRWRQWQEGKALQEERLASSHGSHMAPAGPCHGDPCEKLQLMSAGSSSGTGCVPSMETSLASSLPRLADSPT
Experimental: (§2) Cyclic AMP (cAMP) production was assessed as a proxy for receptor activation using stably transfected baby hamster kidney (BHK) cell lines expressing the DNA for one individual receptor (GLP-1R, GIPR, GcgR; human- or mouse-specific sequence) and the DNA for the firefly luciferase reporter gene linked to the cAMP response element (CRE). The cells were kept in continuous culture at 37 °C and 5% CO2 in Dulbecco's Modified Eagle Medium (DMEM) supplemented with 10% heat-inactivated fetal bovine serum (HI-FBS), 300 μg/mL hygromycin, and 500 μg/mL G418; for cell lines expressing GIPR, the G418 concentration was lowered to 400 μg/mL. Cells were plated in a 96-well poly-D-lysine-coated plate at 5,000 cells per well in growth media and incubated overnight at 37 °C with 5% CO2. After the overnight incubation, the media was removed, the plate was washed once in Dulbecco's phosphase-buffered saline (DPBS), and 50 μL of assay buffer (DMEM without phenol red, 10 mM HEPES, 1x Glutamax, 1% ovalbumin, 0.1% Pluronic F-68) was added to each well. […] The assay plate was covered to protect reagent from light, shaken at 250 rpm at room temperature for 30 min, and read in a microtiter plate reader. EC50 values were calculated using Prism software (GraphPad) with the nonlinear regression log(agonist) vs. response. A minimum of two replicates were measured for each sample.

DIO mice [1] = experiment: Pharmacodynamics in DIO mice: body weight, food intake, body composition; assay type: in vivo, mouse (male C57BL/6J)
Experimental: Studies were approved by and performed according to the guidelines of the Institutional Animal Care and Use Committee of the University of Cincinnati. Male C57BL/6J mice (Jackson Laboratories) were housed 4 per cage, exposed to a controlled 12 h/12 h light–dark cycle at room temperature (22 °C), and provided ab libitum access to water and a 58% fat, high-sugar diet (D12331, Research Diets) for 12 weeks. Mice exceeding 50 g of body weight were considered diet-induced obese (DIO) and included in studies, where they were randomized and evenly distributed to test groups (n = 8 per group) according to body weight. Test compounds dissolved at a concentration of 0.5–2 μM in a vehicle (pH 7.4) containing 0.05% polysorbate-80, 50 mM sodium phosphate, and 70 mM sodium chloride were administered subcutaneously once daily, unless otherwise noted, during the light cycle for each day of treatment at a volume of 2–5 μL per gram of body weight as necessary to achieve the desired dose. Body weight and food intake were measured immediately prior to dosing each day. The percent change in body was calculated individually for each mouse based on initial body weight prior to the first injection. For intraperitoneal (i.p.) glucose tolerance tests (IPGTT), animals were fasted for 6 h prior to the test but had access to water. Fasted blood glucose levels were measured, then mice were injected with an i.p. glucose load of 2 g/kg from a 200 mg/mL aqueous glucose solution. Tail blood glucose levels were measured 0, 15, 30, 60, 90, and 120 min following the glucose load using a handheld glucometer (Freestyle, Abbott).

DIO mice [2] = experiment: Plasma parameters in DIO mice after chronic treatment; assay type: in vivo, mouse; settings: higher dose (2 nmol/kg), compared to vehicle
hGcg Receptor = biological target: T2, hGcg Receptor (Homo sapiens, UniProt P47871); experiment: Receptor activation: cAMP production by CRE-luciferase reporter in stably transfected BHK cells; assay type: cell-based; settings: compared to the native ligand for the receptor
T2 construct: expressed in transfected cells; host or cells: baby hamster kidney (BHK) cells, stably transfected, with CRE-firefly luciferase reporter
T2 sequence (P47871 26-477): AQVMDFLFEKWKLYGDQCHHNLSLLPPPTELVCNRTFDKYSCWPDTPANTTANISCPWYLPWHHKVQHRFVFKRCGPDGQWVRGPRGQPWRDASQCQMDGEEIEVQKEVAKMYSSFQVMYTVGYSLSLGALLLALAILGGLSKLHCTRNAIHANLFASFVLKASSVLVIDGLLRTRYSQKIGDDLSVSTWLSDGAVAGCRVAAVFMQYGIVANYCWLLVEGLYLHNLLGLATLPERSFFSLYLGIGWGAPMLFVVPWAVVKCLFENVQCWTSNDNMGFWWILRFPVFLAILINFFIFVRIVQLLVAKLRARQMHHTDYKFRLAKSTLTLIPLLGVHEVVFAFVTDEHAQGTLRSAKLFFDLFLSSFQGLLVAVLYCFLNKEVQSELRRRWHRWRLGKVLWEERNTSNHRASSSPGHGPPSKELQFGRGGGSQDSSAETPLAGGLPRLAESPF
Outline: (§1)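 BHK cells stably expressing one human receptor plus a CRE-firefly luciferase reporter were stimulated 3 h at 37 °C in phenol-red-free DMEM with 1% ovalbumin and 0.1% Pluronic F-68.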

hGLP-1 Receptor = biological target: T3, hGLP-1 Receptor (Homo sapiens, UniProt P43220); experiment: as above; assay type: cell-based; settings: compared to the native ligand for the receptor
T3 construct: expressed in transfected cells; host or cells: baby hamster kidney (BHK) cells, stably transfected, with CRE-firefly luciferase reporter
T3 sequence (P43220 24-463): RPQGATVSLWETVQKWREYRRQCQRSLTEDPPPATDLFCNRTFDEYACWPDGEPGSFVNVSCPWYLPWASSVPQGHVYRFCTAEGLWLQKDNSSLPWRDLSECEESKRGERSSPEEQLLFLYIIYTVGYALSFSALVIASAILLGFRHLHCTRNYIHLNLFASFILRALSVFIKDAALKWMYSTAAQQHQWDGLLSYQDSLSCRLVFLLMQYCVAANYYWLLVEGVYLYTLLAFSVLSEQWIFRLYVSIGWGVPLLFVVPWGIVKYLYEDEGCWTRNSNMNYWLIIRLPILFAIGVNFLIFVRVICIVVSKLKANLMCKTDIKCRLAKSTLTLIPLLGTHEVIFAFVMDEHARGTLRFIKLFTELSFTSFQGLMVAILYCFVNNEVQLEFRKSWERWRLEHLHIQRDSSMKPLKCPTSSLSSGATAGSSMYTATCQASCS
Outline: as §1

DIO mice [3] = experiment: Energy expenditure in DIO mice (indirect calorimetry); assay type: in vivo, mouse; settings: daily injections of 3 nmol/kg for 5 days inside an indirect calorimeter
Experimental: Energy expenditure was assessed using a combined indirect calorimetry system (TSE Systems, Chesterfield, MO). Animals were kept in the indirect calorimetry system for 7d; d1 (0–24h) included acclimation to the new cages but no energy expenditure readings, d2 included baseline energy expenditure readings with vehicle injections, d3-7 included experimental energy expenditure readings and treatment injections. Treatment injections begin at t = 48h as indicated by the vertical dashed line and were performed every 24h as indicated by the arrows. O2 consumption and CO2 production were measured every 20 min to determine the respiratory quotient and energy expenditure using the Weir equation (EE=(3.94 x vO2) + (1.1 x vCO2)).

mGIP Receptor = biological target: T4, mGIP Receptor (Mus musculus, UniProt Q0P543); experiment: Receptor activation: cAMP production by CRE-luciferase reporter in stably transfected BHK cells; assay type: cell-based; settings: relative to native ligand at mouse-derived receptor
T4 construct: expressed in transfected cells; host or cells: baby hamster kidney (BHK) cells, stably transfected, with CRE-firefly luciferase reporter
T4 sequence (Q0P543 19-460): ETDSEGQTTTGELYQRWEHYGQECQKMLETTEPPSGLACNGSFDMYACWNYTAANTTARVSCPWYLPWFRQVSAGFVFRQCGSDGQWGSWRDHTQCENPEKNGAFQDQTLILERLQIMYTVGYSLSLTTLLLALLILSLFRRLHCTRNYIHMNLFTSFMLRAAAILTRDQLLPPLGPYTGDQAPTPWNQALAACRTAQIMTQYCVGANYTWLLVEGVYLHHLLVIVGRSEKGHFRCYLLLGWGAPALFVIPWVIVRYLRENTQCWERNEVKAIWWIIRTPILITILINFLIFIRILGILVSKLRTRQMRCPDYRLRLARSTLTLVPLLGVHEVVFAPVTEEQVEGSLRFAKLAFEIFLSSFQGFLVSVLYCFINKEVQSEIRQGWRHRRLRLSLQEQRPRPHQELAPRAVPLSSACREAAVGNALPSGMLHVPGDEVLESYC
Experimental: as §2

CC[C@H](C)[C@H](NC(=O)[C@H](CO)NC(=O)[C@H](Cc1ccc(O)cc1)NC(=O)[C@H](CC(=O)O)NC(=O)[C@H](CO)NC(=O)[C@@H](NC(=O)[C@H](Cc1ccccc1)NC(=O)[C@@H](NC(=O)CNC(=O)[C@H](Cc1c[nH]cn1)NC(=O)C(C)(C)NC(=O)[C@@H](N)Cc1c[nH]cn1)[C@@H](C)O)[C@@H](C)O)C(=O)N[C@@H](Cc1ccc(O)cc1)C(=O)N[C@@H](CC(C)C)C(=O)N[C@@H](CCC(=O)O)C(=O)N[C@@H](CCCCNC(=O)[C@@H](N)CCCCNC(=O)[C@@H](N)CCCCNC(=O)CC[C@H](NC(=O)CCCCCCCCCCCCCCCCCCC(=O)O)C(=O)O)C(=O)N[C@@H](CCCCN)C(=O)N[C@@H](Cc1ccc(O)cc1)C(=O)N[C@@H](C)C(=O)NC(C)(C)C(=O)N[C@@H](CCC(=O)O)C(=O)N[C@@H](Cc1ccccc1)C(=O)N[C@H](C(=O)N[C@@H](CCC(N)=O)C(=O)N[C@@H](Cc1c[nH]c2ccccc12)C(=O)N[C@@H](CC(C)C)C(=O)N[C@@H](CC(C)C)C(=O)N[C@@H](CCC(=O)O)C(=O)NCC(=O)NCC(=O)N1CCC[C@H]1C(=O)N[C@@H](CO)C(=O)N[C@@H](CO)C(=O)NCC(=O)N[C@@H](C)C(=O)N1CCC[C@H]1C(=O)N1CCC[C@H]1C(=O)N1CCC[C@H]1C(=O)N[C@@H](CO)C(N)=O)C(C)C [Compound 16] (H-H[Aib]HGTFTSDYSIYLEK([εLys-εLys-γGlu-C20 diacid])KYA[Aib]EFVQWLLEGGPSSGAPPPS-NH2)
mGcg Receptor Relative Potency % (mGcg Receptor): 78% | body weight loss at high dose versus first generation triagonist and SAR441255 (DIO mice [1]; 2 nmol/kg): significantly superior body weight loss | weight lowering efficacy versus tirzepatide (DIO mice [1]; 3 nmol/kg daily and dose-escalated (1 to 30 nmol/kg) groups, s.c.): significantly more weight lowering efficacy | Body weight reductions (DIO mice [1]; 3 nmol/kg daily dose s.c., after 2 weeks of treatment): greater than 30% | origin of weight loss (fat mass vs lean mass) (DIO mice [1]; 1 or 2 nmol/kg): predominantly derived from a reduction in fat mass, not lean mass | animals achieving body weight normalization (average weight of lean litter mates, 22.5 g) (DIO mice [1]; n = 8 per group, up-titrated from 1 to 10 nmol/kg over 24 days, then 10 nmol/kg for up to 18 days): Five of the eight | body weight loss in animals achieving body weight normalization (DIO mice [1]; s.c. once daily, up-titrated from 1 to 10 nmol/kg over 24 days, then 10 nmol/kg for up to 18 days): 55–60% | insulin levels (DIO mice [2]): decreased | hGcg Receptor Relative Potency % (hGcg Receptor): 102% | hGLP-1 Receptor Relative Potency % (hGLP-1 Receptor): 177% | energy expenditure (DIO mice [3]): increased energy expenditure over both vehicle and tirzepatide | locomotor activity (DIO mice [3]): not accompanied by a change in locomotor activity | mGIP Receptor Relative Potency % (mGIP Receptor): 265%
